Structures can show the parent of a compound that is named as a salt. Where two headings read alike, the source gives them in different places.
How the values were obtained:
human PHD2 = target: T1, human PHD2 (Homo sapiens, UniProt Q9GZT9); experiment: Measurement of human PHD inhibitory activity (TR-FRET, hydroxylation of HIF-1α partial peptide); type: biochemical; conditions: human PHD2 enzyme 1 nM, 25° C. 30 min, values consisting solely of numbers
T1 construct: made in house; host or cells: Sf9 insect cells (baculovirus, pVL1393 vector)
T1 sequence (Q9GZT9 whole entry): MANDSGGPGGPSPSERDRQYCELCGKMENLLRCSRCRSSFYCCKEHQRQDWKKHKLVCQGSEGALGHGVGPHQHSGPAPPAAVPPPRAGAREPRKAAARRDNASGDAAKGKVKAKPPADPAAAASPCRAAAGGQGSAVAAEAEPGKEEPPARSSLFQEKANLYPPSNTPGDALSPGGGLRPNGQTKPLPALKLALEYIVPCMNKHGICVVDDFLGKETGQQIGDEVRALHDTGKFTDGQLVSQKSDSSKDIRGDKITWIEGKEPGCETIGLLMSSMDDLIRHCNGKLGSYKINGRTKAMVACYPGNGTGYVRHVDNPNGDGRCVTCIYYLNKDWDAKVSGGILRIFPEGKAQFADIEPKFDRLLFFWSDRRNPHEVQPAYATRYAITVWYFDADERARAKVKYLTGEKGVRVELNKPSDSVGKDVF
Protocol: Human PHD2 was expressed in insect cell (Sf9 cell). […] The vector and baculovirus were cotransfected into Sf9, and human PHD2 expression baculovirus was isolated in Sf9. By using the virus, human PHD2-expressed cell was prepared. […] The cell lysate was flowed into a column filled with ANTI-FLAG M2 Affinity Gel Freezer Safe (SIGMA), washed, and the N-terminal FLAG-tag-added human PHD2 was eluted and collected.
VBC complex (VHL/Elongin B/Elongin C) was expressed in Escherichia coli (BL21(DE3)). […] After these expression vectors were transfected into Escherichia coli (BL21(DE3)), Escherichia coli was cultured at 37° C. in the medium containing IPTG. The collected Escherichia coli was disrupted by sonication and flowed into a column filled with Ni-NTA superflow (QIAGEN), washed, and the product was eluted and collected. The eluate was flowed into a column filled with Glutathione Sepharose 4B, washed, and the product was eluted and collected. […]
As for human PHD2 enzyme activity, hydroxylation of proline residue contained in the 19 residues of the partial peptide based on the sequence of HIF-1α as a substrate was measured by TR-FRET (Time-Resolved Fluorescence Resonance Energy Transfer) method.
A test compound and a substrate solution were added to a 96-well plate. The reaction was started by addition of a human PHD2 enzyme solution (final concentration 1 nM) to the reaction system. After incubation at 25° C. for 30 min, a stop solution containing EDTA was added, and a VBC complex solution containing europium (Eu) and Xlent was added, and the amount of hydroxylated proline residue was quantified by time-resolved fluorescence spectroscopy. The time-resolved fluorescence in each well was measured, and the human PHD inhibitory activity (%) of the test compound was calculated based on the values of enzyme non-addition well and test compound non-addition well.

[1] = test system: human EPO production, Hep3B cells; experiment: Human EPO production activity in Hep3B cells (EPO-ELISA of culture supernatant); type: cell-based; conditions: for EC50: 24 hr incubation, values consisting solely of numbers, read-out: EC50 (μM) in vitro, human EPO production activity; for production activity (%) at 30 μM in vitro, human EPO: 24 hr, values containing %, relative to maximum production
Protocol: The activity of the test compound on human EPO production was measured using Hep3B (AMC) established from human liver-derived cell line.
Hep3B cells were cultured in Eagle-MEM medium containing 10% fetal bovine serum, and the test compound was diluted with dimethyl sulfoxide (DMSO).
Hep3B cells were cultured in a 96-well plate, and a test compound was added at each concentration 24 hr later. After incubation at 37° C. for 24 hr, the culture supernatant was collected. The concentration of human EPO produced in the culture supernatant was measured using a human EPO-ELISA kit (manufactured by StemCell Technologies, 01630) according to the manufacturer's explanation, and the human EPO production activity (%) of the test compound was calculated based on the maximum value of production under the above conditions and the value without addition of the test compound. […] In these Tables, the values consisting solely of numbers show EC50 (μM) and those containing % show human EPO production activity (%) at […].

[2] = read-out: IC50 (μM) in vitro, human PHD inhibitory activity
[3] = IC50 (μM) in vitro, human PHD inhibitory activity

Molecule O=C(O)CNC(=O)c1c(O)cc(CCc2cc(F)cc(F)c2)c2ncnn12 [Example 109, ({8-[2-(3,5-difluoro-phenyl)-ethyl]-6-hydroxy[1,2,4]triazolo[1,5-a]pyridine-5-carbonyl}amino) acetic acid hydrochloride] has an IC50 (human PHD2; [2]) of 0.17 µM and an EC50 ([1]; Homo sapiens) of 13.7 µM.
O=C(O)CNC(=O)c1c(O)cc(-c2ccccc2Cl)c2ncnn12 [Example 88, {[8-(2-chlorophenyl)-6-hydroxy[1,2,4]triazolo[1,5-a]pyridine-5-carbonyl]amino} acetic acid] was tested, and the IC50 (human PHD2; [2]) was 0.16 µM and the “production activity (%) at 30 μM in vitro, human EPO” value (“production activity (%) at 30 μM” below) [1] was 14%.
With O=C(O)CNC(=O)c1c(O)cc(-c2ccc(C3CC3)cc2F)n2ncnc12 [Example 82, {[5-(4-cyclopropyl-2-fluorophenyl)-7-hydroxy[1,2,4]triazolo[1,5-a]pyridine-8-carbonyl]amino} acetic acid hydrochloride] the IC50 (human PHD2; [2]) was 0.15 µM and the EC50 ([1]; Homo sapiens) was 5.4 µM.
With O=C(O)CNC(=O)c1c(O)c(-c2ccccc2)cn2cnnc12 [Example 9, [(7-hydroxy-6-phenyl[1,2,4]triazolo[4,3-a]pyridine-8-carbonyl)amino]acetic acid] the IC50 (human PHD2; [2]) was 1.57 µM and the “production activity (%) at 30 μM” value [1] was 1%.
Molecule O=C(O)CNC(=O)c1c(O)cc(CC2CCCC2)n2ncnc12 [Example 20, [(5-cyclopentylmethyl-7-hydroxy[1,2,4]triazolo[1,5-a]pyridin-8-carbonyl)amino]acetic acid hydrochloride] has an IC50 (human PHD2; [2]) of 0.59 µM and an EC50 ([1]; Homo sapiens) of 6.6 µM.
O=C(O)CNC(=O)c1c(O)cc(-c2cccc(F)c2F)n2ncnc12 [Example 59, {[5-(2,3-difluorophenyl)-7-hydroxy[1,2,4]triazolo[1,5-a]pyridine-8-carbonyl]amino} acetic acid hydrochloride] was tested, and the IC50 (human PHD2; [2]) was 0.26 µM and the “production activity (%) at 30 μM” value [1] was 49%.
For Cl.O=C(O)CNC(=O)c1c(O)ccn2c(CCc3ccccc3)nnc12 [Example 114, [(7-hydroxy-3-phenethyl[1,2,4]triazolo[4,3-a]pyridine-8-carbonyl)amino] acetic acid hydrochloride], the IC50 (human PHD2; [2]) was 1.2 µM and the “production activity (%) at 30 μM” value [1] was 0%.
With O=C(O)CNC(=O)c1c(O)cc(CCc2ccc(Cl)cc2)n2ncnc12 [Example 14, ({5-[2-(4-chlorophenyl)ethyl]-7-hydroxy[1,2,4]triazolo[1,5-a]pyridine-8-carbonyl}amino)acetic acid hydrochloride] the IC50 (human PHD2; [2]) was 0.23 µM and the EC50 ([1]; Homo sapiens) was 5.1 µM.
Work on O=C(O)CNC(=O)c1c(O)cc(-c2cc(Cl)cc(Cl)c2)n2ncnc12 [Example 46, {[5-(3,5-dichlorophenyl)-7-hydroxy[1,2,4]triazolo[1,5-a]pyridine-8-carbonyl]amino}acetic acid hydrochloride] yielded an IC50 (human PHD2; [2]) of 0.29 µM and an EC50 ([1]; Homo sapiens) of 4.8 µM.
Work on O=C(O)CNC(=O)c1c(O)c(Cl)c(CCc2ccccc2)n2ncnc12 [Example 80, [(6-chloro-7-hydroxy-5-phenethyl[1,2,4]triazolo[1,5-a]pyridine-8-carbonyl)amino] acetic acid hydrochloride] yielded an IC50 (human PHD2; [2]) of 0.71 µM and an EC50 ([1]; Homo sapiens) of 23.3 µM.
With O=C(O)CNC(=O)c1c(O)cc(-c2cc(F)cc(C(F)(F)F)c2)c2ncnn12 [Example 104, {[8-(3-fluoro-5-trifluoromethyl-phenyl)-6-hydroxy[1,2,4]triazolo[1,5-a]pyridine-5-carbonyl]amino} acetic acid hydrochloride] the IC50 (human PHD2; [2]) was 0.19 µM and the EC50 ([1]; Homo sapiens) was 6.3 µM.
In the case of O=C(O)CNC(=O)c1c(O)ccn2c(-c3ccccc3)nnc12 [Example 113, [(7-hydroxy-3-phenyl[1,2,4]triazolo[4,3-a]pyridine-8-carbonyl)amino] acetic acid], the IC50 (human PHD2; [2]) is reported as 0.56 µM and the “production activity (%) at 30 μM” value [1] is reported as 0%.
In the case of O=C(O)CNC(=O)c1c(O)cc(CCc2ccccc2)n2ncnc12 [Example 116, [(7-hydroxy-5-phenethyl[1,2,4]triazolo[1,5-a]pyridine-8-carbonyl)amino] acetic acid], the IC50 (human PHD2; [3]) is reported as 0.18 µM and the EC50 [1] is reported as 5.6 µM.
Work on O=C(O)CNC(=O)c1c(O)cc(C2=CCCCC2)c2ncnn12 [Example 93, [(8-cyclohex-1-enyl-6-hydroxy[1,2,4]triazolo[1,5-a]pyridine-5-carbonyl)amino] acetic acid hydrochloride] yielded an IC50 (human PHD2; [2]) of 0.51 µM and an EC50 ([1]; Homo sapiens) of 16 µM.
In the case of C[C@@H](NC(=O)c1c(O)cc(-c2cc(F)cc(F)c2)n2ncnc12)C(=O)O [Example 64, (R)-2-{[5-(3,5-difluorophenyl)-7-hydroxy[1,2,4]triazolo[1,5-a]pyridine-8-carbonyl]amino} propionic acid hydrochloride], the IC50 (human PHD2; [2]) is reported as 6.88 µM and the “production activity (%) at 30 μM” value [1] is reported as 0%.
CC(C)(C)CCc1cc(O)c(C(=O)NCC(=O)O)c2ncnn12 [Example 24, {[5-(3,3-dimethylbutyl)-7-hydroxy[1,2,4]triazolo[1,5-a]pyridine-8-carbonyl]amino}acetic acid hydrochloride] gave an IC50 (human PHD2; [2]) of 0.57 µM and an EC50 ([1]; Homo sapiens) of 5.4 µM.
In the case of O=C(O)CNC(=O)c1c(O)cc(-c2cc(F)cc(F)c2F)n2ncnc12 [Example 76, {[7-hydroxy-5-(2,3,5-trifluorophenyl) [1,2,4]triazolo[1,5-a]pyridine-8-carbonyl]amino} acetic acid hydrochloride], the IC50 (human PHD2; [2]) is reported as 0.22 µM and the EC50 ([1]; Homo sapiens) is reported as 18 µM.
Molecule O=C(O)CNC(=O)c1c(O)cc(-c2ccccc2F)n2ncnc12 [Example 61, {[5-(2-fluorophenyl)-7-hydroxy[1,2,4]triazolo[1,5-a]pyridine-8-carbonyl]amino} acetic acid hydrochloride] has an IC50 (human PHD2; [2]) of 0.22 µM and an EC50 ([1]; Homo sapiens) of 28.8 µM.
CC(C)(C)Cc1cc(O)c(C(=O)NCC(=O)O)c2ncnn12 [Example 39, {[5-(2,2-dimethylpropyl)-7-hydroxy[1,2,4]triazolo[1,5-a]pyridine-8-carbonyl]amino}acetic acid hydrochloride] was tested, and the IC50 (human PHD2; [2]) was 1.25 µM and the EC50 ([1]; Homo sapiens) was 22.3 µM.
Molecule O=C(O)CNC(=O)c1c(O)cc(-c2cc(F)cc(C(F)(F)F)c2)n2ncnc12 [Example 31, {[5-(3-fluoro-5-trifluoromethyl-phenyl)-7-hydroxy[1,2,4]triazolo[1,5-a]pyridine-8-carbonyl]amino}acetic acid hydrochloride] has an IC50 (human PHD2; [2]) of 0.8 µM and an EC50 ([1]; Homo sapiens) of 12.1 µM.
For O=C(O)CNC(=O)c1c(O)cc(CCc2cc(F)cc(F)c2)n2ncnc12 [Example 19, ({5-[2-(3,5-difluorophenyl)ethyl]-7-hydroxy[1,2,4]triazolo[1,5-a]pyridine-8-carbonyl}amino)acetic acid hydrochloride], the IC50 (human PHD2; [2]) was 0.26 µM and the EC50 ([1]; Homo sapiens) was 6.6 µM.
O=C(O)CNC(=O)c1c(O)cc(-c2ccc(Cl)c(F)c2)n2ncnc12 [Example 78, {[5-(4-chloro-3-fluorophenyl)-7-hydroxy[1,2,4]triazolo[1,5-a]pyridine-8-carbonyl]amino} acetic acid hydrochloride] was tested, and the IC50 (human PHD2; [2]) was 0.15 µM and the EC50 ([1]; Homo sapiens) was 6.6 µM.
O=C(O)CNC(=O)c1c(O)cc(-c2ccc(Cl)c(Cl)c2)c2ncnn12 [Example 95, {[8-(3,4-dichlorophenyl)-6-hydroxy[1,2,4]triazolo[1,5-a]pyridine-5-carbonyl]amino} acetic acid hydrochloride] was tested, and the IC50 (human PHD2; [2]) was 0.12 µM and the EC50 ([1]; Homo sapiens) was 4.3 µM.
With Cc1cc(F)cc(-c2cc(O)c(C(=O)NCC(=O)O)c3ncnn23)c1 [Example 79, {[5-(3-fluoro-5-methylphenyl)-7-hydroxy[1,2,4]triazolo[1,5-a]pyridine-8-carbonyl]amino} acetic acid hydrochloride] the IC50 (human PHD2; [2]) was 0.23 µM and the EC50 ([1]; Homo sapiens) was 7.8 µM.
O=C(O)CNC(=O)c1c(O)cc(CCc2ccccc2)n2ncnc12 [Example 2, [(7-hydroxy-5-phenethyl[1,2,4]triazolo[1,5-a]pyridine-8-carbonyl)amino]acetic acid hydrochloride] gave an IC50 (human PHD2; [3]) of 0.22 µM and an EC50 ([1]; Homo sapiens, Hep3B, 24 h) of 10.9 µM.
